Data on 22 molecules can be found in patent publication US20150352108A1, “AMINO-PYRIMIDINE COMPOUNDS AS INHIBITORS OF TBK1 AND/OR IKK EPSILON” (Alzheimer's Institute of America, priority 2009, published 2015).

Where only a bound is given, the exact number is not on record here.

The target in one experiment is T1, IKKε (Homo sapiens, UniProt Q14164).
T1 construct: His-tag; made in house; host or cells: Sf9 insect cells
T1 sequence (Q14164 1-716): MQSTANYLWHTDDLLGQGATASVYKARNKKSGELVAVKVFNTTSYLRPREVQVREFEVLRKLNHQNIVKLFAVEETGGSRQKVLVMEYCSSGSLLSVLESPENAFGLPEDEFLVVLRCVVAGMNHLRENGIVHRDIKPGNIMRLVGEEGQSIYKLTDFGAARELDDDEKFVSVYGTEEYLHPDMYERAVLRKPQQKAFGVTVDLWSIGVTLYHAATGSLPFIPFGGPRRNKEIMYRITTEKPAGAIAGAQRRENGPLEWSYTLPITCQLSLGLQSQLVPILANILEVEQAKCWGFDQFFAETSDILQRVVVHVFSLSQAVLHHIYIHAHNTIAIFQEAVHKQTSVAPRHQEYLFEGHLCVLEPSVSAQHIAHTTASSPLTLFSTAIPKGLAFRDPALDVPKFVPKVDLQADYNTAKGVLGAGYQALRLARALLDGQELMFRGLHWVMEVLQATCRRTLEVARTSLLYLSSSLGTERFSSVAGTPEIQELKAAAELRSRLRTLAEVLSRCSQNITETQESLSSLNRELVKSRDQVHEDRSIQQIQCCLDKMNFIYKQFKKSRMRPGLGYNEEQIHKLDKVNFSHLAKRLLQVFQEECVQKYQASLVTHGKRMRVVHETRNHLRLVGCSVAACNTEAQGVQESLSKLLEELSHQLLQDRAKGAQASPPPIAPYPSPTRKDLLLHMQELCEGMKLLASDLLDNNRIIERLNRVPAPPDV
Nature of the experiment: In-vitro IKKε kinase assay ([γ33]ATP filter-plate). Format: biochemical. As to conditions: text bins; read-out: IC50 for inhibition of the kinase activity of IKKε. In a few lines:
(§1)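 Phosphorylation of casein or myelin basic protein was counted by P-81 filter capture after 30-45 min reactions stopped with phosphoric acid, with counts normalized to DMSO after background subtraction. ATP was twice Km: 60 μM for TBK1 and 32 μM for IKKε, plus [γ33]ATP. Sf9-expressed His-tag enzymes were used at normal/sensitized levels of 0.1/0.02 μg/ml (TBK1) and 0.1/0.015 μg/ml (IKKε).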

The target in the next experiment is T2, TBK1 (Homo sapiens, UniProt Q9UHD2).
T2 construct: His-tag; made in house; host or cells: Sf9 insect cells
T2 sequence (Q9UHD2 1-729): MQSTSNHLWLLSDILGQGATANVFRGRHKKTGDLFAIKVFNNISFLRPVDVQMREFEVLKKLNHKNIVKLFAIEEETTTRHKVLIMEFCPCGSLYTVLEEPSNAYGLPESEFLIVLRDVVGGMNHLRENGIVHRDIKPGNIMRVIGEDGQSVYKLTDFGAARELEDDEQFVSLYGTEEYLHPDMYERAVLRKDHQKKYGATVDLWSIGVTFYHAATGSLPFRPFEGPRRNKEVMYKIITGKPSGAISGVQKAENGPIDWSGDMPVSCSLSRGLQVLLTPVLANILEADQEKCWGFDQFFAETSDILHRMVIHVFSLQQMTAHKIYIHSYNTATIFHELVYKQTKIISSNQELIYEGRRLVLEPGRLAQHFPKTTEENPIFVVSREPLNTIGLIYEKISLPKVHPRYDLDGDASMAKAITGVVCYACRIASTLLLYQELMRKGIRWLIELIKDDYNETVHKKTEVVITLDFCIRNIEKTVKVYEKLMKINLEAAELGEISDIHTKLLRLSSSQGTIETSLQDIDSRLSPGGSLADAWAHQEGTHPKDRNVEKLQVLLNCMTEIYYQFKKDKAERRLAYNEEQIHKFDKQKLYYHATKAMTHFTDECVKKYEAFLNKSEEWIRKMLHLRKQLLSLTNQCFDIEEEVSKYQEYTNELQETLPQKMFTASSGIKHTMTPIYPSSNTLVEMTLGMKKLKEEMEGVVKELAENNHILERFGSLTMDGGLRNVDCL
Nature of the experiment: In-vitro TBK1 kinase assay ([γ33]ATP filter-plate). The class given is biochemical. As to conditions: text bins; read-out: IC50 for inhibition of the kinase activity of TBK1. In a few lines:
as §1

For orientation: IC50 means the concentration that inhibits the measured activity by half.

Take `CNCCCNS(=O)(=O)c1ccc(Nc2nccc(-c3ccc(OC4CCOCC4)c(C#N)c3)n2)cc1OC` [compound 396]: the IC50 on IKKε was under 5 nM; at TBK1 it was under 10 nM.

As for `COc1cc(Nc2nccc(-c3ccc(OC4CCOCC4)c(C#N)c3)n2)ccc1S(=O)(=O)N(C)CCCN(C)C` [compound 397], the IC50 on IKKε was under 5 nM; on TBK1, under 10 nM.

For `N#Cc1cc(-c2ccnc(Nc3ccc(CS(=O)(=O)N4CCCC4)cc3)n2)ccc1OC1CCOCC1` [compound 403, 5-[2-({4-[(Pyrrolidin-1-ylsulfonyl)methyl]phenyl}amino)pyrimidin-4-yl]-2-(tetrahydro-2H-pyran-4-yloxy)benzonitrile], the results for the IC50 at IKKε and on TBK1 were under 5 nM and under 10 nM, respectively.

With `N#Cc1cc(-c2ccnc(Nc3cccc(CC(=O)NCCCN4CCOCC4)c3)n2)ccc1OC1CCOCC1` [compound 407, 2-[3-({4-[3-Cyano-4-(tetrahydro-2H-pyran-4-yloxy)phenyl]pyrimidin-2-yl}amino)phenyl]-N-[3-(morpholin-4-yl)propyl]acetamide], the IC50 on IKKε is 5 to 50 nM; on TBK1, under 10 nM.

For `CCN(CC)CCN(CC)C(=O)Cc1cccc(Nc2nccc(-c3ccc(OC4CCOCC4)c(C#N)c3)n2)c1` [compound 409, 2-[3-({4-[3-Cyano-4-(tetrahydro-2H-pyran-4-yloxy)phenyl]pyrimidin-2-yl}amino)phenyl]-N-[2-(diethylamino)ethyl]-N-ethylacetamide], the IC50 at IKKε is 5 to 50 nM; at TBK1, under 10 nM.

`Cc1ccc(Nc2nccc(-c3ccc(NC(=O)C(C)C)c(C#N)c3)n2)cc1OCCCN1CCOCC1` [compound 410]: the IC50 lay in the range of 5 to 50 nM on IKKε and 10 to 100 nM at TBK1.

Regarding `CC(C)C(=O)Nc1ccc(-c2ccnc(Nc3ccc(F)c(OCCCN4CCOCC4)c3)n2)cc1C#N` [compound 411, N-{2-Cyano-4-[2-({4-fluoro-3-[3-(morpholin-4-yl)propoxy]phenyl}amino)pyrimidin-4-yl]phenyl}-2-methylpropanamide], the IC50 on IKKε fell in the range of 5 to 50 nM; at TBK1, 10 to 100 nM.

In the case of `CCN(CC)CCN(CC)S(=O)(=O)Cc1ccc(Nc2nccc(-c3ccc(OC4CCOCC4)c(C#N)c3)n2)cc1` [compound 412, 1-[4-({4-[3-Cyano-4-(tetrahydro-2H-pyran-4-yloxy)phenyl]pyrimidin-2-yl}amino)phenyl]-N-[2-(diethylamino)ethyl]-N-ethylmethane-sulfonamide], the results for the IC50 at IKKε and at TBK1 were 5 to 50 nM and 10 to 100 nM, respectively.

Take `N#Cc1cc(-c2ccnc(Nc3ccc(N4CCOCC4)cc3)n2)ccc1NC(=O)C1CCC1` [compound 416, N-[2-cyano-4-(2-{[4-(morpholin-4-yl)phenyl]amino}pyrimidin-4-yl)phenyl] cyclobutane-carboxamide]: the figures for the IC50 on IKKε and at TBK1 were 5 to 50 nM and 10 to 100 nM, respectively.

For `CCC(C)C(=O)Nc1ccc(-c2ccnc(Nc3ccc(N4CCOCC4)cc3)n2)cc1C#N` (centres unmarked) [compound 417, N-[2-cyano-4-(2-{[4-(morpholin-4-yl)phenyl]amino}pyrimidin-4-yl)phenyl]-2-methylbutanamide], the IC50 on IKKε is 5 to 50 nM; on TBK1, under 10 nM.

For the molecule `CC(C)C(=O)Nc1ccc(-c2ccnc(Nc3ccc(CC(=O)N4CCOCC4)cc3)n2)cc1C#N` [compound 419, N-{2-cyano-4-[2-({4-[2-(morpholin-4-yl)-2-oxoethyl]phenyl}amino)pyrimidin-4-yl]phenyl}-2-methylpropanamide], the IC50 at IKKε was 5 to 50 nM; at TBK1, 10 to 100 nM.

Regarding `CC(C)C(=O)Nc1ccc(-c2ccnc(Nc3ccc(CC(=O)NCCCN4CCOCC4)cc3)n2)cc1C#N` [compound 420, N-[2-cyano-4-(2-{[4-(2-{[3-(morpholin-4-yl)propyl]amino}-2-oxoethyl)phenyl]amino}pyrimidin-4-yl)phenyl]-2-methylpropanamide], the figures for the IC50 on IKKε and on TBK1 were 5 to 50 nM and 10 to 100 nM, respectively.

For the molecule `CC(C)C(=O)Nc1ccc(-c2ccnc(Nc3cccc(CC(=O)N4CCOCC4)c3)n2)cc1C#N` [compound 421, N-{2-cyano-4-[2-({3-[2-(morpholin-4-yl)-2-oxoethyl]phenyl}amino)pyrimidin-4-yl]phenyl}-2-methylpropanamide], the IC50 fell in the range of 5 to 50 nM at IKKε and 10 to 100 nM at TBK1.

As for `CC(C)C(=O)Nc1ccc(-c2ccnc(Nc3cccc(CC(=O)NCCCN4CCOCC4)c3)n2)cc1C#N` [compound 422, N-[2-cyano-4-(2-{[3-(2-{[3-(morpholin-4-yl)propyl]amino}-2-oxoethyl)phenyl]amino}pyrimidin-4-yl)phenyl]-2-methylpropanamide], the figures for the IC50 at IKKε and at TBK1 were 5 to 50 nM and 10 to 100 nM, respectively.

Consider `CC(C)C(=O)Nc1ccc(-c2ccnc(Nc3cccc(CC(=O)N4CCN(C(C)C)CC4)c3)n2)cc1C#N` [compound 423, N-(2-cyano-4-{2-[(3-{2-oxo-2-[4-(propan-2-yl)piperazin-1-yl]ethyl}phenyl)amino]pyrimidin-4-yl}phenyl)-2-methylpropanamide], for which the IC50 was 5 to 50 nM on IKKε and under 10 nM on TBK1.

Turning to `CCN(CC)CCN(CC)C(=O)Cc1ccc(Nc2nccc(-c3ccc(NC(=O)C(C)C)c(C#N)c3)n2)cc1` [compound 425, N-[2-cyano-4-(2-{[4-(2-{[2-(diethylamino)ethyl] (ethyl)amino}-2-oxoethyl)phenyl]amino}pyrimidin-4-yl)phenyl]-2-methylpropanamide], the IC50 at IKKε is 5 to 50 nM; at TBK1, under 10 nM.

On to `CC(C)C(=O)Nc1ccc(-c2ccnc(Nc3ccc(N4CCN(CCO)CC4)cc3)n2)cc1C#N` [compound 427, N-{2-cyano-4-[2-({4-[4-(2-hydroxyethyl)piperazin-1-yl]phenyl}amino)pyrimidin-4-yl]phenyl}-2-methylpropanamide], for which the IC50 on IKKε was 5 to 50 nM; on TBK1, under 10 nM.

Turning to `CC(C)C(=O)Nc1ccc(-c2ccnc(Nc3ccc(CN4CCOCC4)cc3)n2)cc1C#N` [compound 428, N-[2-cyano-4-(2-{[4-(morpholin-4-ylmethyl)phenyl]amino}pyrimidin-4-yl)phenyl]-2-methylpropanamide], the IC50 was in the range of 5 to 50 nM at IKKε and 10 to 100 nM at TBK1.

With `CC(C)C(=O)Nc1ccc(-c2ccnc(Nc3cccc(OCCN4CCOCC4)c3)n2)cc1C#N` [compound 432, N-{2-cyano-4-[2-({3-[2-(morpholin-4-yl)ethoxy]phenyl}amino)pyrimidin-4-yl]phenyl}-2-methylpropanamide], the figures for the IC50 on IKKε and on TBK1 were 5 to 50 nM and 10 to 100 nM, respectively.

`COc1ccc(Nc2nccc(-c3ccc(NC(=O)C(C)C)c(C#N)c3)n2)cc1OCCCN1CCOCC1` [compound 433, N-{2-cyano-4-[2-({4-methoxy-3-[3-(morpholin-4-yl)propoxy]phenyl}amino)pyrimidin-4-yl]phenyl}-2-methylpropanamide]: the IC50 on IKKε was 5 to 50 nM; at TBK1, under 10 nM.

Regarding `COc1cc(-c2ccnc(Nc3ccc(CN4CCN(CCO)CC4)cc3)n2)cc(C#N)c1OC1CCOCC1` [compound 443], the IC50 fell in the range of 5 to 50 nM on IKKε and 10 to 100 nM at TBK1.

Regarding `N#Cc1cc(-c2ccnc(Nc3ccc(N4CCOCC4)cc3)n2)ccc1OCCCN` [compound 447, 2-(3-Aminopropoxy)-5-(2-{[4-(morpholin-4-yl)phenyl]amino}pyrimidin-4-yl)benzonitrile], the IC50 on IKKε was in the range of 5 to 50 nM; on TBK1, 10 to 100 nM.
